# Measurements as given in the NIST ThermoML archive (doi:10.1016/j.jct.2015.01.004).
# Several values for one entry are separate records, joined by “and”; a condition that tells them apart may be missing. Equal entries are not always repeated. ± gives the expanded uncertainty stated by the source.
# Assay: molar heat capacity at constant pressure; xn = mol fraction of the nth substance listed
# Conditions: 100 kPa
smiles,measurement,setting,value
[Si] [silicon] + [Li],molar heat capacity at constant pressure,"660 K, Crystal of intercomponent compound 1, relaxation calorimetry + DSC, x2 = 0.81",29.4 ± 1.2 J/K/mol
same,molar heat capacity at constant pressure,"660 K, Crystal of intercomponent compound 2, relaxation calorimetry + DSC, x2 = 0.804",30.54 ± 1.2 J/K/mol
same,molar heat capacity at constant pressure,"661.54 K, Crystal of intercomponent compound 2, Small sample (50 mg) DSC, x2 = 0.804",30.1 ± 0.74 J/K/mol and 30.48 ± 0.75 J/K/mol
same,molar heat capacity at constant pressure,"661.72 K, Crystal of intercomponent compound 1, Small sample (50 mg) DSC, x2 = 0.81",29.4 ± 0.72 J/K/mol
same,molar heat capacity at constant pressure,"661.75 K, Crystal of intercomponent compound 1, Small sample (50 mg) DSC, x2 = 0.81",29.72 ± 0.73 J/K/mol
same,molar heat capacity at constant pressure,"671.45 K, Crystal of intercomponent compound 2, Small sample (50 mg) DSC, x2 = 0.804",30.27 ± 0.74 J/K/mol and 30.68 ± 0.75 J/K/mol
same,molar heat capacity at constant pressure,"671.64 K, Crystal of intercomponent compound 1, Small sample (50 mg) DSC, x2 = 0.81",29.62 ± 0.73 J/K/mol
same,molar heat capacity at constant pressure,"671.66 K, Crystal of intercomponent compound 1, Small sample (50 mg) DSC, x2 = 0.81",29.83 ± 0.73 J/K/mol
same,molar heat capacity at constant pressure,"680 K, Crystal of intercomponent compound 1, relaxation calorimetry + DSC, x2 = 0.81",29.94 ± 1.2 J/K/mol
same,molar heat capacity at constant pressure,"680 K, Crystal of intercomponent compound 2, relaxation calorimetry + DSC, x2 = 0.804",30.97 ± 1.3 J/K/mol
same,molar heat capacity at constant pressure,"681.36 K, Crystal of intercomponent compound 2, Small sample (50 mg) DSC, x2 = 0.804",30.52 ± 0.75 J/K/mol and 30.84 ± 0.76 J/K/mol
same,molar heat capacity at constant pressure,"681.56 K, Crystal of intercomponent compound 1, Small sample (50 mg) DSC, x2 = 0.81",29.62 ± 0.73 J/K/mol
same,molar heat capacity at constant pressure,"681.57 K, Crystal of intercomponent compound 1, Small sample (50 mg) DSC, x2 = 0.81",30.16 ± 0.74 J/K/mol
same,molar heat capacity at constant pressure,"691.29 K, Crystal of intercomponent compound 2, Small sample (50 mg) DSC, x2 = 0.804",30.56 ± 0.75 J/K/mol and 31.08 ± 0.76 J/K/mol
same,molar heat capacity at constant pressure,"691.47 K, Crystal of intercomponent compound 1, Small sample (50 mg) DSC, x2 = 0.81",29.94 ± 0.73 J/K/mol
same,molar heat capacity at constant pressure,"691.48 K, Crystal of intercomponent compound 1, Small sample (50 mg) DSC, x2 = 0.81",30.38 ± 0.74 J/K/mol
same,molar heat capacity at constant pressure,"700 K, Crystal of intercomponent compound 1, relaxation calorimetry + DSC, x2 = 0.81",30.53 ± 1.2 J/K/mol
same,molar heat capacity at constant pressure,"700 K, Crystal of intercomponent compound 2, relaxation calorimetry + DSC, x2 = 0.804",31.4 ± 1.3 J/K/mol
same,molar heat capacity at constant pressure,"701.21 K, Crystal of intercomponent compound 2, Small sample (50 mg) DSC, x2 = 0.804",31.04 ± 0.76 J/K/mol and 31.36 ± 0.77 J/K/mol
same,molar heat capacity at constant pressure,"701.37 K, Crystal of intercomponent compound 1, Small sample (50 mg) DSC, x2 = 0.81",30.27 ± 0.74 J/K/mol
same,molar heat capacity at constant pressure,"701.39 K, Crystal of intercomponent compound 1, Small sample (50 mg) DSC, x2 = 0.81",30.6 ± 0.75 J/K/mol
same,molar heat capacity at constant pressure,"711.13 K, Crystal of intercomponent compound 2, Small sample (50 mg) DSC, x2 = 0.804",31.38 ± 0.77 J/K/mol and 31.59 ± 0.77 J/K/mol
same,molar heat capacity at constant pressure,"711.28 K, Crystal of intercomponent compound 1, Small sample (50 mg) DSC, x2 = 0.81",30.6 ± 0.75 J/K/mol
same,molar heat capacity at constant pressure,"711.3 K, Crystal of intercomponent compound 1, Small sample (50 mg) DSC, x2 = 0.81",30.82 ± 0.75 J/K/mol
same,molar heat capacity at constant pressure,"720 K, Crystal of intercomponent compound 1, relaxation calorimetry + DSC, x2 = 0.81",31.18 ± 1.3 J/K/mol
same,molar heat capacity at constant pressure,"720 K, Crystal of intercomponent compound 2, relaxation calorimetry + DSC, x2 = 0.804",31.84 ± 1.3 J/K/mol
same,molar heat capacity at constant pressure,"721.05 K, Crystal of intercomponent compound 2, Small sample (50 mg) DSC, x2 = 0.804",31.75 ± 0.78 J/K/mol and 32.03 ± 0.78 J/K/mol
same,molar heat capacity at constant pressure,"721.2 K, Crystal of intercomponent compound 1, Small sample (50 mg) DSC, x2 = 0.81",30.49 ± 0.75 J/K/mol
same,molar heat capacity at constant pressure,"721.22 K, Crystal of intercomponent compound 1, Small sample (50 mg) DSC, x2 = 0.81",31.15 ± 0.76 J/K/mol
same,molar heat capacity at constant pressure,"730.97 K, Crystal of intercomponent compound 2, Small sample (50 mg) DSC, x2 = 0.804",32.1 ± 0.79 J/K/mol and 32.36 ± 0.79 J/K/mol
same,molar heat capacity at constant pressure,"731.12 K, Crystal of intercomponent compound 1, Small sample (50 mg) DSC, x2 = 0.81",31.04 ± 0.76 J/K/mol
same,molar heat capacity at constant pressure,"731.13 K, Crystal of intercomponent compound 1, Small sample (50 mg) DSC, x2 = 0.81",31.37 ± 0.77 J/K/mol
same,molar heat capacity at constant pressure,"740 K, Crystal of intercomponent compound 1, relaxation calorimetry + DSC, x2 = 0.81",31.88 ± 1.3 J/K/mol
same,molar heat capacity at constant pressure,"740 K, Crystal of intercomponent compound 2, relaxation calorimetry + DSC, x2 = 0.804",32.3 ± 1.3 J/K/mol
same,molar heat capacity at constant pressure,"740.89 K, Crystal of intercomponent compound 2, Small sample (50 mg) DSC, x2 = 0.804",32.38 ± 0.79 J/K/mol and 32.64 ± 0.8 J/K/mol
same,molar heat capacity at constant pressure,"741.03 K, Crystal of intercomponent compound 1, Small sample (50 mg) DSC, x2 = 0.81",31.26 ± 0.77 J/K/mol
same,molar heat capacity at constant pressure,"741.04 K, Crystal of intercomponent compound 1, Small sample (50 mg) DSC, x2 = 0.81",31.7 ± 0.78 J/K/mol
same,molar heat capacity at constant pressure,"750.81 K, Crystal of intercomponent compound 2, Small sample (50 mg) DSC, x2 = 0.804",32.68 ± 0.8 J/K/mol and 32.92 ± 0.81 J/K/mol
same,molar heat capacity at constant pressure,"750.95 K, Crystal of intercomponent compound 1, Small sample (50 mg) DSC, x2 = 0.81",31.81 ± 0.78 J/K/mol
same,molar heat capacity at constant pressure,"750.96 K, Crystal of intercomponent compound 1, Small sample (50 mg) DSC, x2 = 0.81",32.14 ± 0.79 J/K/mol
same,molar heat capacity at constant pressure,"760 K, Crystal of intercomponent compound 1, relaxation calorimetry + DSC, x2 = 0.81",32.63 ± 1.3 J/K/mol
same,molar heat capacity at constant pressure,"760 K, Crystal of intercomponent compound 2, relaxation calorimetry + DSC, x2 = 0.804",32.82 ± 1.3 J/K/mol
same,molar heat capacity at constant pressure,"760.73 K, Crystal of intercomponent compound 2, Small sample (50 mg) DSC, x2 = 0.804",33.14 ± 0.81 J/K/mol and 33.47 ± 0.82 J/K/mol
same,molar heat capacity at constant pressure,"760.87 K, Crystal of intercomponent compound 1, Small sample (50 mg) DSC, x2 = 0.81",32.14 ± 0.79 J/K/mol and 32.58 ± 0.8 J/K/mol
same,molar heat capacity at constant pressure,"770.64 K, Crystal of intercomponent compound 2, Small sample (50 mg) DSC, x2 = 0.804",33.77 ± 0.83 J/K/mol and 34.02 ± 0.83 J/K/mol
same,molar heat capacity at constant pressure,"770.79 K, Crystal of intercomponent compound 1, Small sample (50 mg) DSC, x2 = 0.81",33.23 ± 0.82 J/K/mol and 33.34 ± 0.82 J/K/mol
same,molar heat capacity at constant pressure,"771.71 K, Crystal of intercomponent compound 1, Small sample (50 mg) DSC, x2 = 0.81",33.67 ± 0.83 J/K/mol
same,molar heat capacity at constant pressure,"773.69 K, Crystal of intercomponent compound 1, Small sample (50 mg) DSC, x2 = 0.81",33.78 ± 0.83 J/K/mol
same,molar heat capacity at constant pressure,"775.67 K, Crystal of intercomponent compound 1, Small sample (50 mg) DSC, x2 = 0.81",33.89 ± 0.83 J/K/mol
same,molar heat capacity at constant pressure,"777.66 K, Crystal of intercomponent compound 1, Small sample (50 mg) DSC, x2 = 0.81",34.22 ± 0.84 J/K/mol
same,molar heat capacity at constant pressure,"779.64 K, Crystal of intercomponent compound 1, Small sample (50 mg) DSC, x2 = 0.81",34.39 ± 0.84 J/K/mol
same,molar heat capacity at constant pressure,"780 K, Crystal of intercomponent compound 1, relaxation calorimetry + DSC, x2 = 0.81",33.45 ± 1.4 J/K/mol
same,molar heat capacity at constant pressure,"780 K, Crystal of intercomponent compound 2, relaxation calorimetry + DSC, x2 = 0.804",33.49 ± 1.4 J/K/mol
same,molar heat capacity at constant pressure,"780.56 K, Crystal of intercomponent compound 2, Small sample (50 mg) DSC, x2 = 0.804",34.41 ± 0.84 J/K/mol and 34.69 ± 0.85 J/K/mol
same,molar heat capacity at constant pressure,"780.7 K, Crystal of intercomponent compound 1, Small sample (50 mg) DSC, x2 = 0.81",34 ± 0.83 J/K/mol
same,molar heat capacity at constant pressure,"780.71 K, Crystal of intercomponent compound 1, Small sample (50 mg) DSC, x2 = 0.81",34.22 ± 0.84 J/K/mol
same,molar heat capacity at constant pressure,"781.63 K, Crystal of intercomponent compound 1, Small sample (50 mg) DSC, x2 = 0.81",34.88 ± 0.85 J/K/mol
same,molar heat capacity at constant pressure,"783.61 K, Crystal of intercomponent compound 1, Small sample (50 mg) DSC, x2 = 0.81",34.99 ± 0.86 J/K/mol
same,molar heat capacity at constant pressure,"785.59 K, Crystal of intercomponent compound 1, Small sample (50 mg) DSC, x2 = 0.81",35.21 ± 0.86 J/K/mol
same,molar heat capacity at constant pressure,"787.58 K, Crystal of intercomponent compound 1, Small sample (50 mg) DSC, x2 = 0.81",35.32 ± 0.87 J/K/mol
same,molar heat capacity at constant pressure,"789.57 K, Crystal of intercomponent compound 1, Small sample (50 mg) DSC, x2 = 0.81",35.32 ± 0.87 J/K/mol
same,molar heat capacity at constant pressure,"790.48 K, Crystal of intercomponent compound 2, Small sample (50 mg) DSC, x2 = 0.804",34.65 ± 0.85 J/K/mol and 35.21 ± 0.86 J/K/mol
same,molar heat capacity at constant pressure,"790.61 K, Crystal of intercomponent compound 1, Small sample (50 mg) DSC, x2 = 0.81",34.99 ± 0.86 J/K/mol
same,molar heat capacity at constant pressure,"790.63 K, Crystal of intercomponent compound 1, Small sample (50 mg) DSC, x2 = 0.81",34.55 ± 0.85 J/K/mol
same,molar heat capacity at constant pressure,"791.55 K, Crystal of intercomponent compound 1, Small sample (50 mg) DSC, x2 = 0.81",35.54 ± 0.87 J/K/mol
same,molar heat capacity at constant pressure,"793.53 K, Crystal of intercomponent compound 1, Small sample (50 mg) DSC, x2 = 0.81",35.76 ± 0.88 J/K/mol
same,molar heat capacity at constant pressure,"795.51 K, Crystal of intercomponent compound 1, Small sample (50 mg) DSC, x2 = 0.81",36.31 ± 0.89 J/K/mol
same,molar heat capacity at constant pressure,"797.49 K, Crystal of intercomponent compound 1, Small sample (50 mg) DSC, x2 = 0.81",36.96 ± 0.91 J/K/mol
same,molar heat capacity at constant pressure,"800 K, Crystal of intercomponent compound 1, relaxation calorimetry + DSC, x2 = 0.81",34.34 ± 1.4 J/K/mol
same,molar heat capacity at constant pressure,"800 K, Crystal of intercomponent compound 2, relaxation calorimetry + DSC, x2 = 0.804",34.61 ± 1.4 J/K/mol
same,molar heat capacity at constant pressure,"800.39 K, Crystal of intercomponent compound 2, Small sample (50 mg) DSC, x2 = 0.804",35.13 ± 0.86 J/K/mol and 35.58 ± 0.87 J/K/mol
same,molar heat capacity at constant pressure,"810.3 K, Crystal of intercomponent compound 2, Small sample (50 mg) DSC, x2 = 0.804",35.47 ± 0.87 J/K/mol and 36.02 ± 0.88 J/K/mol
same,molar heat capacity at constant pressure,"820 K, Crystal of intercomponent compound 2, relaxation calorimetry + DSC, x2 = 0.804",36.83 ± 1.5 J/K/mol
same,molar heat capacity at constant pressure,"820.22 K, Crystal of intercomponent compound 2, Small sample (50 mg) DSC, x2 = 0.804",36.24 ± 0.89 J/K/mol and 36.35 ± 0.89 J/K/mol
same,molar heat capacity at constant pressure,"830.13 K, Crystal of intercomponent compound 2, Small sample (50 mg) DSC, x2 = 0.804",38.35 ± 0.94 J/K/mol and 38.57 ± 0.95 J/K/mol
same,molar heat capacity at constant pressure,"840 K, Crystal of intercomponent compound 2, relaxation calorimetry + DSC, x2 = 0.804",41.72 ± 1.7 J/K/mol
same,molar heat capacity at constant pressure,"840.04 K, Crystal of intercomponent compound 2, Small sample (50 mg) DSC, x2 = 0.804",41.23 ± 1 J/K/mol and 41.78 ± 1 J/K/mol
same,molar heat capacity at constant pressure,"849.95 K, Crystal of intercomponent compound 2, Small sample (50 mg) DSC, x2 = 0.804",45.22 ± 1.1 J/K/mol and 47.32 ± 1.2 J/K/mol
same,molar heat capacity at constant pressure,"859.87 K, Crystal of intercomponent compound 2, Small sample (50 mg) DSC, x2 = 0.804",51.54 ± 1.3 J/K/mol and 53.53 ± 1.3 J/K/mol
same,molar heat capacity at constant pressure,"860 K, Crystal of intercomponent compound 2, relaxation calorimetry + DSC, x2 = 0.804",52.81 ± 2.1 J/K/mol
same,molar heat capacity at constant pressure,"869.79 K, Crystal of intercomponent compound 2, Small sample (50 mg) DSC, x2 = 0.804",60.18 ± 1.5 J/K/mol and 65.17 ± 1.6 J/K/mol
